Reference: US20110117169A1, “METHODS AND COMPOSITIONS FOR CAPTURE OF CELLS” (AFFINERGY, INC., priority 2009, published 2011)
Ends that are not written are not given here.

What was measured:
[1] = system: human MSCs (mixed with IM-9 and U937 cells); assay: Capture of MSCs from a mixed cell population with peptide on CELLECTION magnetic beads; assay type: cell-based; settings: starting mixture 38% IM9, 56% U937, 4% MSC
Source text: In this experiment, biotinylated cell binding peptide, SEQ ID NO: 16, was attached to CELLECTION magnetic beads. The CELLECTION beads have streptavidin coupled to a magnetic particle through a DNA linker. Three different cell types, human MSCs, IM-9, and U937 cells were differentially labeled with […] dye and mixed in a ratio such that the MSCs represented ˜4% of the starting cell mixture (the percentage of each cell type in the starting mixture was 38% IM9, 56% U937, and 4% MSC). The cell binding peptide, SEQ ID NO: 16, was biotinylated as described herein at Example 2, as was a general cell binding peptide for use as a control peptide in the experiment. Magnetic particles with no peptide attached, as well as magnetic beads having attached either the cell binding peptide, SEQ ID NO: 16, or the control peptide were tested for their ability to capture human MSCs. The starting cell mixture was incubated with magnetic beads having either attached peptide or no peptide, the beads were washed, and the captured cells were released from the beads by DNase treatment. The cells were measured by flow cytometry histograms shown in 18A-18C. The magnetic beads without peptide captured little or no cells (FIG. 18B). The magnetic beads with attached cell binding peptide SEQ ID NO: 16 captured a cell population that was 96% MSCs (FIG. 18C).

[2] = system: human umbilical vein endothelial cells (HUVECs); assay: Biotinylated peptide binding to endothelial and other cells, flow cytometry; settings: biotinylated peptide 10 μM, 30 min at 4° C.
Description: (§1) The synthetic biotinylated binding peptide SEQ ID NO: 4 was further examined for its ability to bind endothelial cells compared to other cell types (see FIG. 16). […] ECFCs are clonally expanded cells isolated from human umbilical cord blood, and are considered highly proliferative endothelial progenitor cells (EPCs) based on their clonogenic and proliferative potential. In another experiment, binding peptide SEQ ID NO: 4 was assayed for its ability to selectively isolate endothelial cells versus smooth muscle cells in the presence of whole blood. HUVECs or UASMCs were incubated in the presence of medium containing 20% whole blood and binding peptide SEQ ID NO: 4-conjugated magnetic beads (via biotin-SA) for 30 min. The solutions containing the bead-peptide-cell complexes were then passed through a […] LS column in a magnetic field. The column was washed, and the remaining peptide-bound cells were then released from the magnetic field and counted.

[3] = system: umbilical artery smooth muscle cells (UASMCs); assay: as above; settings: biotinylated peptide 10 μM, 30 min at 4° C.
Description: as §1

dermal fibroblasts = assay: Biotinylated peptide cell binding specificity, flow cytometry with Neutravidin-PE; set-up: species or system human; settings: 25 μM solution, 30 min at 4° C.
Source text: (§2) The synthetic biotinylated cell binding peptide SEQ ID NO: 4 was examined for its ability to specifically bind MSCs compared to a number of other cells types including adipose-derived mesenchymal stem cells (ASCs), dermal fibroblasts, rodent MSCs, red blood cells, monocytes, lymphocytes and granulocytes. The cell binding peptide was biotinylated as described herein at Example 2. Cultured cells of each type were either purchased (ASCs and dermal fibroblasts) or isolated from rodent bone marrow (rodent MSCs) or human blood. Cells were first harvested and resuspended at 10^6/mL in PBS+2% fetal bovine serum (FBS). An aliquot of cells (50 μL) was incubated in 50 μL of peptide solution (25 μM in PBS+FBS) for 30 min at 4° C. Cells were then washed twice in PBS+FBS with 300×g centrifugation for 5 min between washes. Fluorescently-tagged neutravidin (Neutravidin-PE from INVITROGEN) was then added to the cells to label biotinylated peptide bound to cells. Neutravidin-PE was diluted 1:250 from stock and applied at 50 μL to cells. Cells were then washed in PBS+FBS, and acquired on a BD […]. Peptide reactivity was then measured as percent positivity relative to Neutravidin-PE staining without the addition of biotinylated peptide.

[4] = system: endothelial colony forming cells (ECFCs); assay: Biotinylated peptide binding to endothelial and other cells, flow cytometry; set-up: species or system human; settings: biotinylated peptide 10 μM, 30 min at 4° C.
Description: as §1

[5] = system: human ASCs (adipose-derived mesenchymal stem cells); assay: Biotinylated peptide cell binding specificity, flow cytometry with Neutravidin-PE; settings: 25 μM solution, 30 min at 4° C.
Source text: as §2

human MSCs = assay: as above; settings: 25 μM solution, 30 min at 4° C.
Source text: as §2

TGF-β3 = target: T1, TGF-β3 (Homo sapiens, UniProt P10600); assay: ELISA-type binding of growth factor to biotinylated peptide on streptavidin plates; settings: peptide 0.2 μM on streptavidin plate, TGF-β3 1 μM-1 nM
T1 sequence (P10600 301-412 limits assumed): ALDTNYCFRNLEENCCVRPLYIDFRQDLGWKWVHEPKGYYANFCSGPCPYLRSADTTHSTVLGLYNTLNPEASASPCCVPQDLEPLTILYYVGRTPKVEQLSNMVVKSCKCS
Source text: Peptides that bind TGF-β3 were identified by phage display biopanning. Recombinant human TGF-β3 (rhTGF-β3) was biotinylated and immobilized on streptavidin-coated microtiter plates. Twenty-two different phage display libraries were used for the selection. Enrichment of target-binding phage in the selection was monitored using an ELISA-type assay with an HRP-conjugated anti-M13 antibody. After enrichment for TGF-β3 specific phage, individual phage were picked, propagated on E. coli, and tested for binding to TGF-β3. Over 20 individual phage were isolated that bound TGF-β3. […] The TGF-β3-binding peptide sequences were then synthesized using standard solid-phase peptide synthesis techniques on a Symphony Peptide Synthesizer (PROTEIN TECHNOLOGIES, Tucson, Ariz.) using standard Fmoc chemistry as described herein above at Example 2. Biotinylated peptides were generated similarly, with a GSSGK(biotin) sequence added to the C-terminus of the peptide.
The TGF-β binding peptides with the biotin moiety on their C-terminus were tested for their ability to bind the target growth factor using the following methods. Streptavidin-coated plates were first prepared by generating a 1:100 dilution of streptavidin (1 mg/mL) in 0.1M NaHCO3 buffer. […] To reveal immunoreactivity, 100 μL of para-nitrophenyl phosphate solution was added to each well, and optical density was recorded on a spectrophotometer.

SSFRFGPLGTWNYPSTDNAE (also: biotin, site not given here) [SEQ ID NO: 16, tested biotinylated]
MSCs in captured cell population [1]: 96%

SSFWDVCQGDGTCYGGGSR (SSFWDVCQGDGTCYGGGSRGSSG-{K(biotin)}; cysteine pairing not given here) [SEQ ID NO: 4, tested biotinylated (C-terminal GSSGK(biotin) or other spacer)]
cross-reactivity with HUVECs [2]: cross-reacted strongly | cross-reactivity with UASMCs [3]: weakly | binding to dermal fibroblasts (percent positivity relative to Neutravidin-PE staining) (dermal fibroblasts): high binding | cross-reactivity with ECFCs [4]: cross-reacted strongly | binding to human ASCs (percent positivity relative to Neutravidin-PE staining) [5]: high binding | binding to human MSCs (percent positivity relative to Neutravidin-PE staining) (human MSCs): high binding

SSCNNLSVCTFDKIIERNRSSR (SSCNNLSVCTFDKIIERNRSSRGSSG-{K(biotin)}; cysteine pairing not given here) [SEQ ID NO: 21, tested with C-terminal GSSGK(biotin)]
binding affinity for TGF-β3 (TGF-β3): best binding affinity
